This note sets out measurements from US8877889B2, “Tumor cell-killing peptides” (Industry-Academic Cooperation Foundation, Chosun University, priority 2009, dated 2014).

Series [1] is described as follows: Toxicity in peptide-injected mice (histology of skin, liver, kidney; body weight). The class given is in vivo, Balb/c mice. The note with it: for apparent toxic effects in mice: i.v. injected mice; for damage in liver and kidney tissues, microscopic analysis: mice injected seven times every two days; for body weight loss: peptide-injected mice; for cell death in dermis and epidermis regions: peptide-injected tumor-bearing mice, hematoxylin and eosin. An excerpt: (D) Images (400× magnification) of liver and kidney from normal mice or mice treated with, PBS, TU2:MTD or TU3:MTD peptides seven times every two days were obtained after stained with hematoxylin and eosin.
(D) Images (100× magnification) of dermis and epidermis region of normal skin or adjacent to tumor treated with PBS, TU2:MTD or TU3:MTD peptides were obtained after stained with hematoxylin and eosin.
(§1) We followed the university's institutional guidelines and regulations for animal experiments. Tumors were established in Balb/c mice by subcutaneous injection of CT-26 cells (1.5×10^5 cells) into the mouse as described (14). Tumor volume was calculated as length×width^2×0.5. Tumor cells were grown for 7 to 8 days, and TU2:MTD peptide (385 μg/mouse), TU3:MTD peptide (230 μg/mouse), or PBS was intravenously injected through the tail vein every two days until the mice were sacrificed.

The test system of series [2] is CT26 mouse colon carcinoma cells. Briefly: Tumor cell killing activity, bright field images. The class given is cell-based. The note with it: 10 μM peptide (FIG. 9A). The method, then: (A) CT26 cells were treated with 10 μM MTD, TU1:MTD, TU2:MTD, or TU3:MTD peptides, and bright field images for indicated peptides were obtained at indicated time points. Representative images of at least 3 individual experiments were presented.

The test system of the next series is CT-26 cells. Briefly: Syngeneic animal tumor model. The note with it: Balb/c mice with CT26 tumors; for tumor size (tumor volume) versus PBS: i.v. tail vein every two days, TU2:MTD 385 μg/mouse, TU3:MTD 230 μg/mouse; for cell death of tumor cells, histochemical examination of tumors: i.v., hematoxylin and eosin. The class given is in vivo. How it is done: (A) CT26 cells were injected subcutaneously into the Balb/c mice. Tumor cells were grown for 7 days, and TU2:MTD peptide (385 μg/mouse) or PBS was intravenously injected through the tail vein (n=10 animals/group) every two days from day 7 to day 19. Tumor volume was calculated as the longest diameter×width2×0.5.
(B) TU3:MTD peptide (230 μg/mouse) or PBS were intravenously injected to the Balb/c mice bearing tumor through the tail vein (n=5 animals/group) every two days from day 8 to day 20. Tumor volume was measured as described above.
(C) Tumors were obtained from the mice treated with PBS, TU2:MTD or TU3:MTD upon sacrificing the mice, and were stained with hematoxylin and eosin. Images (400× magnification) at tumor regions were obtained (left), and the boxed region were enlarged (right).
(B) CT26 cells were injected subcutaneously into the Balb/c mice. Tumor cells were grown for 7 days, and TU2:MTD peptide (385 μg/mouse) or PBS was intravenously injected through the tail vein (n=10 animals/group) every two days from day 7 to day 19. Tumor weights were measured after mice were sacrificed.
(C) TU3:MTD peptide (230 μg/mouse) or PBS were intravenously injected to the Balb/c mice bearing tumor through the tail vein (n=5 animals/group) every two days from day 8 to day 20. Tumor weights were measured as described above.
as §1

A further series deals with NCI-H460 cells. Briefly: Peptide-induced cell death in NCI-H460 cells. The conditions noted are these: 5 μM, 2 or 5 hours (FIG. 3C). The class given is cell-based. The method, then:
(C) NCI-H460 cells were treated with indicated peptides for 2 hours or 5 hours. % cell death was determined as described above.

For series [3], the system named is HeLa cells. Put plainly: Caspase activation, western blot of cell lysates. Format: cell-based. The note with it: 5 μM peptide. How it is done: (E) After treatment with the MTD peptide, MTDmt4, or MTDmt5 (5 μM) in HeLa cells, cell lysates were prepared at indicated times. Equal amounts of proteins were subjected to the SDS-PAGE and blotted onto PVDF membrane. After blocked with 5% nonfat milk in TBST (10 mM Tris-HCl, pH 7.5, 100 mM NaCl and 0.1% Tween-20), the membrane was probed with anti-caspase-3 (SantaCruz Biotechnology, Inc., Santa Cruz, Calif., USA), anti-caspase-8 (Cell signaling technology, Beverly, Mass., USA), anti-caspase-9 (SantaCruz Biotechnology, Inc., Santa Cruz, Calif.), anti-XIAP (Upstate Biotechnology, Dundee, United Kingdom), or anti-Bid (home-made) antibodies. Anti-actin antibody (Chemicon International, Inc., Temecula, Calif., USA) was used as equal loading control.
(A western blot detects proteins with antibodies after separation by electrophoresis.)

Series [4] has as its system HeLa cells. Briefly: Peptide-induced cell death, counting dead and survived cells under the light microscope. The class given is cell-based. The note with it: peptides 10 μM, 20 μM, 30 μM, 10 minutes after treatment (FIG. 1B, 3A). How it is done:
(B) HeLa cells were treated with DMSO or the indicated peptides in increasing doses (10 μM, 20 μM, and 30 μM). % of cell death was determined at 10 minutes after treatment by counting the dead cells and survived cells under the light microscope.
(E) HeLa cells were transfected with substitution mutants of MTD peptide.
HeLa cells were treated with DMSO or with the indicated peptides at increasing doses (10 μM, 20 μM, or 30 μM). % cell death was determined 10 minutes after treatment by counting the dead cells and survived cells (300 cells per sample) under the light microscope.
(D) HeLa cells were treated with indicated amounts of MTD peptide for 1 hour, 2 hours, or 5 hours. % cell death was calculated by counting the dead cells and survived cells (200 to 500 cells per sample) under the light microscope. Data represent the means±SD of three independent experiments.

In series [5] the test system is Isolated mouse liver mitochondria. Put plainly: Isolated mitochondria treated with peptide, transmission electron microscopy. The conditions noted are these: 10 μM peptide; 1 hour at 30° C. The method, then: (D) Isolated mouse liver mitochondria were treated with buffer (NT), MTD peptide (10 μM), or MTDmt5 peptide (10 μM), and then incubated for 1 hour at 30° C. Mitochondria were harvested by centrifugation (10,000×rpm) and then processed for transmission electron microscopy. Images (upper panel) were obtained with 7,000× magnification, and the relative mitochondrial sizes (lower panel) were calculated by measuring the diameters of about 40 individual mitochondria.
Jurkat cells or isolated mitochondria treated with MTD peptides were harvested by centrifugation and fixed with 2.5% glutaraldehyde for 2 hours followed by washing with 0.2 M sodium cacodylate buffer (pH 7.2) three times for 10-20 minutes. Fixation step was repeated overnight and washed with 0.2 M sodium cacodylate buffer three times. Samples were dehydrated with following sequential solutions 60% ethanol, 70% ethanol, 80% ethanol, 90% ethanol, 95% ethanol, and 100% ethanol twice for 20 minutes at 4° C., and then infiltrated by propylene oxide three times for 20 minutes. Samples were embedded with the mixture of propylene oxide and epon for 6 hours. Electron microscopic images were obtained using the Hitachi H-7600 electron microscope (80 kV, Hitachi, Tokyo, Japan). Mitochondria were isolated from mouse liver as previously described (1).

In series [6] the test system is HeLa cells. Briefly: Measurement of intracellular calcium with Fluo-4-AM. Format: cell-based. The conditions noted are these: 3 μM peptide. How it is done: (A-C) HeLa cells were loaded with 3 μM Fluo-4-AM for 30 minutes and then treated with 3 μM of indicated peptides (A: MTD, B: MTDmt3, C: MTDmt5). Fluorescence images and bright-field images were obtained with the laser scanning confocal microscope at 5-second intervals for 5 minutes. Relative fluorescence intensities (F/F0) at two region-of-interests (ROI 1 and 2) were measured at 5-second intervals for 5 minutes.
(E-G) HeLa cells were pretreated in calcium free KRB media alone (E), in KRB media with 10 μM 2-APB and 20 μM Ryanodine (F), or in KRB media with freshly made 30 μM CsA (G) for 2 hours. HeLa cells were then loaded with 3 μM Fluo-4-AM for 30 minutes and treated with 3 μM of MTD peptide. Images were obtained with the laser scanning confocal microscope at 5-second intervals for 5 minutes. Relative fluorescence intensities (F/F0) at two region-of-interests (ROI 1 and 2) were measured at 5-second intervals for 5 minutes.
For Ca^2+ measurements in the cytosol, HeLa cells were cultured in an Lab-Tek™ Chamber glass slide and loaded with Fluo-4-AM (Fluo-4-acetoxymethyl ester) at a final concentration of 3 μM for 30 minutes, followed by washing with PBS (Phosphate buffered saline) at pH 7.4 and the addition of fresh Ca^2+-free Krebs-ringer modified buffer (KRB: 125 mM NaCl, 5 mM KCl, 1 mM Na3PO4, 1 mM MgSO4, 5.5 mM glucose, and 20 mM HEPES, pH 7.4, at 37° C.) containing the indicated peptides. Time-lapse images were obtained at 488 nm excitation with the Argon laser scanning confocal microscope (Leica TCS SP5 Microsystems, Mannheim, Germany) at 10-second intervals for 5 minutes to visualize Fluo-4-AM.
On the technique in general: Calcium assays in cells follow changes in intracellular calcium, usually with a dye or a luminescent sensor.

Series [7] deals with HeLa cells. Briefly: Cell death assayed by cell counting kit-8, with or without caspase inhibitor pre-treatment. The note with it: 5 μM peptide for 5 hours (FIG. 2C). The class given is cell-based. The method, then:
(C) HeLa cells were pre-treated with zVAD-fmk (25 μM) or IDN-6556 (25 μM) 1 hour before MTD-peptide treatment. After treatment of 5 μM of R8, ΔR8-MTD, and R8:MTD peptides for 5 hours, cell death was assayed by cell counting kit-8 (Dojindo Molecular Technologies, Rockville, USA).
In general terms: Tetrazolium assays rely on reduction of a dye to a coloured formazan, in cell work by metabolically active cells.

Series [8] deals with HeLa cells. Put plainly: Cell death after transfection of Noxa constructs, counting EGFP-positive dead cells. Format: cell-based. The method, then:
(D) HeLa cells were transfected with deletion mutants of Noxa. At 11 hrs, 24 hrs, and 36 hrs after transfection, cell death was determined by counting EGFP-positive dead cells with morphological changes using the fluorescent microscope.
(B) HeLa cells were transfected with WT or with the indicated Noxa mutants. 20 hours after transfection cell death was determined by counting the EGFP-positive dead and survived cells under the fluorescent microscope.
(A) HeLa cells were transfected with either WT Noxa, 4Lmt (L42A, L43A, L45A, L49A), or 5Lmt (L29A, L42A, L43A, L45A, L49A) constructs. At the indicated times after transfection, cell death was determined by counting the EGFP-positive dead cells with morphological changes under the fluorescent microscope.
HeLa cells were transfected with EGFP-Noxa WT and 41-54 in combination with Bcl-2 expression plasmid or in the presence of zVAD-fmk (25 μM). 18 hours after transfection, cell death was determined by counting EGFP-positive dead cells with morphological changes using the fluorescent microscope. Data represent an average±SD of three experiments each with 200 total cells counted.
The percentage of cell death was determined by counting EGFP-positive dead cells with morphology using the fluorescent microscope. Minimally, 300 cells in three separate fields were counted for each measurement.

For series [9], the system named is HeLa cells. Put plainly: Cytochrome c release by immunofluorescence. The class given is cell-based. The note with it: HeLa cells transfected; 2 days in the presence of zVAD-fmk. The method, then:
(B) Plasmids (control vector or Noxa WT fused to GFP) were transfected into HeLa cells. After 2 days in the presence of zVAD-fmk, cytochrome c was stained with anti-cytochrome c antibody. Arrows indicate the diffused cytochrome c staining (upper panel). The release of cytochrome c was analyzed by immunofluorescence in HeLa cells after treatment with MTD peptides (5 μM) (lower panel).

Entries after “also recorded” stand apart in the source; their conditions may differ. No end group written: not given here.

Turning to “CGNKRTRGCGGKLLNLISKLF (TU3-MTD fusion peptide derived from Homo sapiens) [TU3:MTD]”, in series [1], the “apparent toxic effects in mice” value is “do not show apparent toxic effects”; the “damage in liver and kidney tissues, microscopic analysis” value was “no damages in liver and kidney tissues”; the body weight loss result is “no body weight loss”; the “cell death in dermis and epidermis regions” value is given as “no or little cell death”. For the same substance, in [2], the “tumor cell killing activity” value is reported as “comparable killing activities to MTD peptide”. In addition, in the series with CT-26 cells, the “tumor size (tumor volume) versus PBS” value is “significantly smaller tumors” and the “cell death of tumor cells, histochemical examination of tumors” value is reported as “massive cell death of tumor cells”.

As to “RRRRRRRRGRQKLLNLISKAA (PTD-MTDmt5 fusion peptide derived from Homo sapiens)”, the “susceptibility of cells to peptide” value in the series on NCI-H460 cells was “not”. In addition, in the series with HeLa cells [3], the caspase activation result was “not activated”. Moreover, the “cell death-inducing activity (% of cell death)” value in the series on HeLa cells [4] is on record as “no killing activity; also recorded: completely lost their cell death-inducing activities; also recorded: no cell death”. Also, the “morphological changes or mitochondrial size changes of isolated mitochondria” value in series [5] was “did not show any morphological changes or mitochondrial size changes”. In addition, in the series on HeLa cells [6], the “cytosolic calcium level change” value was “did not induce changes in the cytosolic calcium level”.

For the substance KLLNLISKLF [ΔR8:MTD], the cell death entry with HeLa cells [7] is “could not cause cell death; also recorded: no cell death-inducing activity”.

“CNGRCVSGCAGRCGGKLLNLISKLF (TU2-MTD fusion peptide derived from Homo sapiens) [TU2:MTD]”: in [1], the “apparent toxic effects in mice” value was “do not show apparent toxic effects”; the “damage in liver and kidney tissues, microscopic analysis” value is “no damages in liver and kidney tissues”; the body weight loss result was “no body weight loss”; the “cell death in dermis and epidermis regions” value was “no or little cell death”. Further, in series [2], the “tumor cell killing activity” value is reported as “comparable killing activities to MTD peptide”. Besides, in the series on CT-26 cells, the “tumor size (tumor volume) versus PBS” value is listed as “significantly smaller tumors” and the “cell death of tumor cells, histochemical examination of tumors” value is given as “massive cell death of tumor cells”.

With “WT Noxa: wild type Noxa (1-54) expressed from pEGFP-Noxa by transfection (MPGKKARKNAQPSPARAPAELEVECATQLRRFGDKLNFRQKLLNLISKLFCSGT; cysteine pairing not given here; also: EGFP fusion (pEGFP-Noxa); UniProt Q13794 1-54, looked up)”, the cell death entry in the series with HeLa cells [8] (HeLa cells transfected (FIG. 8A)) was “more than 60%”. In the series on HeLa cells [8] (HeLa cells, within 11 hrs after transfection (FIG. 1D)), the “cell death after over-expression” value is “induced cell death within 11 hrs”. Also, in the series on HeLa cells [8] (HeLa cells, zVAD-fmk 25 μM, 18 hours after transfection (FIG. 10)), the “inhibition of transfection-induced cell death by zVAD-fmk” value is reported as “significantly inhibited by zVAD-fmk”. Moreover, the “cytochrome c release from mitochondria” value in the series on HeLa cells [9] is “able to release the cytochrome c from mitochondria”.
